Assay results reported in US4575508A, “2-Substituted 1-(3'-aminoalkyl)-1,2,3,4-tetrahydro-β-carbolines, and their use as antiarrhythmic agents” (BASF Aktiengesellschaft, priority 1982, dated 1986).
Like-named read-outs stand apart in the source and are kept apart here.

Tests used:
Assay type in all cases: in vivo, male Sprague-Dawley rats
rat = test: Toxicity: dose at which first cardiotoxic or neurotoxic symptoms occur, rat, oral administration
Description: (§1) To investigate the antiarrhythmic activity, the substances were administered orally to male Sprague-Dawley rats each weighing 200-250 g. 45 minutes later, the animals were anesthetized with sodium thiobutabarbital (100 mg/kg, administered intraperitoneally). Aconitine was used as the arrhythmogenic substance, and was infused intravenously 60 minutes after administration of the substance (dosage rate: 0.005 mg per kg per min.). […] The onset of these arrhythmias could be delayed by means of antiarrhythmics, the delay achieved being dose-dependent.
(§2) For further characterization of the substances, the dose at which the first cardiotoxic symptoms (changes in the initial ECG) or neurotoxic symptoms (coordination disturbances, convulsions, etc.) occurred was determined from the decimal-geometric dosage progression (factor .cuberoot.10) used in the experiments.

[1] = as above; settings: in vivo
Description: as §1, §2

[2] = test system: aconitine-induced arrhythmia; test: Aconitine-induced arrhythmia in rats, oral administration (antiarrhythmic activity); settings: for ED50: Rattus norvegicus, po, 1 h, read-out: Aconitine-induced arrhythmia ED 50% (dose which prolongs the aconitine infusion duration by 50%); for times more effective than quinidine on aconitine-induced arrhythmia / R.A. (relative activity, based on quinidine = 1.00): rat, oral; for R.A. (relative activity, based on quinidine = 1.00): aconitine-induced arrhythmia; for antiarrhythmic action (in words): general statement
Description: as §1
Linear relationships exist between the logarithms of the doses (mg/kg) of the test substances and the relative prolongation of the aconitine infusion duration (Δ%), from which relationships the dose which prolongs the infusion duration by 50% can be determined, as the ED 50%.
The known antiarrhythmic quinidine was used as a comparative substance.

| Compound | Toxicity Dose (dose after the application of which the first toxic symptoms are observed) (rat; in vivo, po) [mg/kg] | selectivity ratio ([1]; po) | ED50 [2] [mg/kg] | times more effective than quinidine on aconitine-induced arrhythmia [2] [times] | R.A. (relative activity, based on quinidine = 1.00) [2] | Toxicity Dose (dose after the application of which the first toxic symptoms are observed) (rat; oral, cardiotoxic or neurotoxic symptoms) [mg/kg] | selectivity ratio ([1]; oral, measure of the therapeutic index, read-out: Toxicity Q (quotient of the toxic dose and the antiarrhythmically effective dose, ED 50%)) | antiarrhythmic action (in words) [2] |
| --- | --- | --- | --- | --- | --- | --- | --- | --- |
| CC(=O)N1CCc2c([nH]c3ccccc23)C1CCCN1CCN(C)CC1 (stereo not drawn) [Example 21, 1-[3'-(4-Methylpiperazin-1-yl)-propyl]-2-acetyl-1,2,3,4-tetrahydro-β-carboline] | 215 | 15 | 14.6 | 3 | 2.98 |  |  |  |
| CCCN(CCCC1c2c(c3ccccc3n2C)CCN1C(C)=O)C(C)C (stereo not drawn) [Example 46, 1-[3'-(Isopropylpropyl)-aminopropyl]-2-acetyl-9-methyl-1,2,3,4-tetrahydro-β-carboline] |  |  | 0.732 | 59 | 59.43 | 4.64 | 14 |  |
| CCCCNCCCC1c2[nH]c3ccccc3c2CCN1C(C)=O (stereo not drawn) [Example 28, 1-(3'-n-Butylaminopropyl)-2-acetyl-1,2,3,4-tetrahydro-β-carboline] | 215 | 17 | 12.4 |  | 3.51 |  |  |  |
| CCn1c2c(c3ccccc31)CCN(C(C)=O)C2CCCN1CCN(C)CC1 (stereo not drawn) [Example 44, 1-[3'-(4-Methylpiperazin-1-yl)-propyl]-2-acetyl-9-ethyl-1,2,3,4-tetrahydro-β-carboline] | 215 | 23 | 9.21 |  | 4.72 |  |  |  |
| C=C[C@H]1C[N@@]2CC[C@H]1C[C@@H]2[C@@H](O)c1ccnc2ccc(OC)cc12 [quinidine, reference compound] |  |  | 43.5 |  |  |  |  |  |
| CCC(C)N(CCCC1c2[nH]c3ccccc3c2CCN1C(C)=O)C(C)CC (stereo not drawn) [Example 33, 1-[3'-(Di-2-butyl)-aminopropyl]-2-acetyl-1,2,3,4-tetrahydro-β-carboline] | 21.5 | 14 | 1.57 |  | 27.71 |  |  |  |
| CC(=O)N1CCc2c([nH]c3ccccc23)C1CCCN(C)C (stereo not drawn) [Example 4, 1-(3'-Dimethylaminopropyl)-2-acetyl-1,2,3,4-tetrahydro-β-carboline] | 215 | 16 | 13.5 | 3 | 3.22 |  |  |  |
| CCCN(CCC)CCCC1c2c(c3ccccc3n2C)CCN1C(C)=O (stereo not drawn) [Example 42, 1-(3'-Dipropylaminopropyl)-2-acetyl-9-methyl-1,2,3,4-tetrahydro-β-carboline] | 10 | 12 | 0.842 |  | 51.66 |  |  | particularly active |
| CCCCN(CCCC)CCCC1c2[nH]c3ccccc3c2CCN1C(C)=O (stereo not drawn) [Example 31, 1-[3'-(Di-n-butyl)-aminopropyl]-2-acetyl-1,2,3,4-tetrahydro-β-carboline] | 21.5 | 13 | 1.71 |  | 25.44 |  |  |  |
| CC(=O)N1CCc2c(n(C)c3ccccc23)C1CCCN(CC(C)C)CC(C)C (stereo not drawn) [Example 43, 1-[3'-(Di-2-methylpropyl)-aminopropyl]-2-acetyl-9-methyl-1,2,3,4-tetrahydro-β-carboline] | 10 | 13 | 0.803 |  | 54.17 |  |  | particularly active |
